Measurements from ChEMBL document CHEMBL3091293, “The synthesis and biodistribution of [(11)C]metformin as a PET probe to study hepatobiliary transport mediated by the multi-drug and toxin extrusion transporter 1 (MATE1) in vivo” (Bioorg Med Chem, 2013).

Legend:
Assay type in all cases: ADME, organism-based; call rule not given here
Pancreas = experiment: Biodistribution in pancreas of ddY mouse at 5.6 +/- 2.1 MBq, iv measured per gram of tissue at 30 mins by gamma-ray counting analysis; conditions: in vivo, 0.5 h
Kidney [1] = experiment: Biodistribution in kidney of ddY mouse at 5.6 +/- 2.1 MBq, iv measured per gram of tissue at 30 mins by gamma-ray counting analysis; conditions: in vivo, 0.5 h
Mus musculus [2] = experiment: Biodistribution in remaining body parts of ddY mouse at 14.6 +/- 2.1 MBq, iv measured per gram of tissue at 5 mins by PET image analysis; conditions: in vivo
Spleen [3] = experiment: Biodistribution in spleen of ddY mouse at 5.6 +/- 2.1 MBq, iv measured per gram of tissue at 35 mins by gamma-ray counting analysis; conditions: in vivo
Mus musculus [4] = experiment: Biodistribution in urinary bladder of ddY mouse at 14.6 +/- 2.1 MBq, iv measured per gram of tissue at 14 mins by PET image analysis; conditions: in vivo
Mus musculus [5] = experiment: Biodistribution in heart wall of ddY mouse at 5.6 +/- 2.1 MBq, iv measured per gram of tissue at 30 mins by gamma-ray counting analysis; conditions: in vivo, 0.5 h
Thyroid gland [6] = experiment: Biodistribution in thyroid of ddY mouse at 5.6 +/- 2.1 MBq, iv measured per gram of tissue at 60 mins by gamma-ray counting analysis; conditions: in vivo, 1 h
Spleen [7] = experiment: Biodistribution in spleen of ddY mouse at 5.6 +/- 2.1 MBq, iv measured per gram of tissue at 60 mins by gamma-ray counting analysis; conditions: in vivo, 1 h
Liver [8] = experiment: Biodistribution in liver of ddY mouse at 5.6 +/- 2.1 MBq, iv measured per gram of tissue at 35 mins by gamma-ray counting analysis; conditions: in vivo
Lung [9] = experiment: Biodistribution in lung of ddY mouse at 5.6 +/- 2.1 MBq, iv measured per gram of tissue at 30 mins by gamma-ray counting analysis; conditions: in vivo, 0.5 h
Thyroid gland [10] = experiment: Biodistribution in thyroid of ddY mouse at 5.6 +/- 2.1 MBq, iv measured per gram of tissue at 45 mins by gamma-ray counting analysis; conditions: in vivo, 0.75 h
Mus musculus [11] = experiment: Biodistribution in urinary bladder/urine of ddY mouse at 5.6 +/- 2.1 MBq, iv measured per gram of tissue at 30 mins by gamma-ray counting analysis; conditions: in vivo, 0.5 h
Mus musculus [12] = experiment: Biodistribution in remaining body parts of ddY mouse at 5.6 +/- 2.1 MBq, iv measured per gram of tissue at 35 mins by gamma-ray counting analysis; conditions: in vivo
Mus musculus [13] = experiment: Biodistribution in urinary bladder of ddY mouse at 14.6 +/- 2.1 MBq, iv measured per gram of tissue at 27.5 mins by PET image analysis; conditions: in vivo
Mus musculus [14] = experiment: Biodistribution in large intestine wall of ddY mouse at 5.6 +/- 2.1 MBq, iv measured per gram of tissue at 15 mins by gamma-ray counting analysis; conditions: in vivo, 0.25 h
Mus musculus [15] = experiment: Biodistribution in urinary bladder/urine of ddY mouse at 5.6 +/- 2.1 MBq, iv measured per gram of tissue at 60 mins by gamma-ray counting analysis; conditions: in vivo, 1 h
[16] = Metabolic stability in urine of mouse at 5 +/- 2.3 MBq/kg, iv measured until 30 to 60 mins by HPLC analysis in presence of MATE1 inhibitor pyrimethamine; conditions: in vivo
Mus musculus [17] = experiment: Biodistribution in large intestine wall of ddY mouse at 5.6 +/- 2.1 MBq, iv measured per gram of tissue at 35 mins by gamma-ray counting analysis; conditions: in vivo
Kidney [18] = experiment: Biodistribution in kidney of ddY mouse at 14.6 +/- 2.1 MBq, iv measured per gram of tissue at 5 mins by PET image analysis; conditions: in vivo
Mus musculus [19] = experiment: Biodistribution in heart wall of ddY mouse at 5.6 +/- 2.1 MBq, iv measured per gram of tissue at 60 mins by gamma-ray counting analysis; conditions: in vivo, 1 h
Kidney [20] = experiment: Drug uptake in kidney of ddY mouse at 127 +/- 35 MBq/kg, iv measured up to 4.5 mins by microPET image analysis; conditions: in vivo, 0.075 h
Liver [21] = experiment: Biodistribution in liver of ddY mouse at 5.6 +/- 2.1 MBq, iv measured per gram of tissue at 45 mins by gamma-ray counting analysis; conditions: in vivo, 0.75 h
Kidney [22] = experiment: Biodistribution in kidney of ddY mouse at 14.6 +/- 2.1 MBq, iv measured per gram of tissue at 14 mins by PET image analysis; conditions: in vivo
Mus musculus [23] = experiment: Biodistribution in stomach wall of ddY mouse at 5.6 +/- 2.1 MBq, iv measured per gram of tissue at 30 mins by gamma-ray counting analysis; conditions: in vivo, 0.5 h
Liver [24] = experiment: Biodistribution in liver of ddY mouse at 5.6 +/- 2.1 MBq, iv measured per gram of tissue at 30 mins by gamma-ray counting analysis; conditions: in vivo, 0.5 h
Mus musculus [25] = experiment: Biodistribution in small intestine wall of ddY mouse at 5.6 +/- 2.1 MBq, iv measured per gram of tissue at 30 mins by gamma-ray counting analysis; conditions: in vivo, 0.5 h
Blood = experiment: Metabolic stability in blood of mouse at 5 +/- 2.3 MBq/kg, iv measured until 30 to 60 mins by HPLC analysis in presence of MATE1 inhibitor pyrimethamine; conditions: in vivo
Mus musculus [26] = experiment: Biodistribution in heart wall of ddY mouse at 5.6 +/- 2.1 MBq, iv measured per gram of tissue at 15 mins by gamma-ray counting analysis; conditions: in vivo, 0.25 h
Kidney [27] = experiment: Biodistribution in kidney of ddY mouse at 5.6 +/- 2.1 MBq, iv measured per gram of tissue at 90 mins by gamma-ray counting analysis; conditions: in vivo, 1.5 h
Mus musculus [28] = experiment: Biodistribution in small intestine wall of ddY mouse at 5.6 +/- 2.1 MBq, iv measured per gram of tissue at 35 mins by gamma-ray counting analysis; conditions: in vivo
Lung [29] = experiment: Biodistribution in lung of ddY mouse at 5.6 +/- 2.1 MBq, iv measured per gram of tissue at 15 mins by gamma-ray counting analysis; conditions: in vivo, 0.25 h
Mus musculus [30] = experiment: Biodistribution in stomach wall of ddY mouse at 5.6 +/- 2.1 MBq, iv measured per gram of tissue at 60 mins by gamma-ray counting analysis; conditions: in vivo, 1 h
Mus musculus [31] = experiment: Biodistribution in heart wall of ddY mouse at 5.6 +/- 2.1 MBq, iv measured per gram of tissue at 90 mins by gamma-ray counting analysis; conditions: in vivo, 1.5 h
Spleen [32] = experiment: Biodistribution in spleen of ddY mouse at 5.6 +/- 2.1 MBq, iv measured per gram of tissue at 90 mins by gamma-ray counting analysis; conditions: in vivo, 1.5 h
Mus musculus [33] = experiment: Biodistribution in small intestine wall of ddY mouse at 5.6 +/- 2.1 MBq, iv measured per gram of tissue at 90 mins by gamma-ray counting analysis; conditions: in vivo, 1.5 h
Mus musculus [34] = experiment: Biodistribution in urinary bladder/urine of ddY mouse at 5.6 +/- 2.1 MBq, iv measured per gram of tissue at 15 mins by gamma-ray counting analysis; conditions: in vivo, 0.25 h
Thyroid gland [35] = experiment: Biodistribution in thyroid of ddY mouse at 5.6 +/- 2.1 MBq, iv measured per gram of tissue at 15 mins by gamma-ray counting analysis; conditions: in vivo, 0.25 h

CN([11CH3])C(=N)NC(=N)N
Drug uptake (Pancreas): 0.405 %ID
Drug uptake (Kidney [1]): 1.111 %ID
Drug uptake (Mus musculus [2]): 51.908 %ID
Drug uptake (Spleen [3]): 0.145 %ID
Drug uptake (Mus musculus [4]): 56.419 %ID
Drug uptake (Mus musculus [5]): 0.044 %ID
Drug uptake (Thyroid gland [6]): 0.005 %ID
Drug uptake (Spleen [7]): 0.139 %ID
Drug uptake (Liver [8]): 1.478 %ID
Drug uptake (Lung [9]): 0.218 %ID
Drug uptake (Thyroid gland [10]): 0.002 %ID
Drug uptake (Mus musculus [11]): 73.314 %ID
Drug uptake (Mus musculus [12]): 20.55 %ID
Drug uptake (Mus musculus [13]): 66.041 %ID
Drug uptake (Mus musculus [14]): 0.659 %ID
Drug uptake (Mus musculus [15]): 69.767 %ID
Stability [16]: Stable
Drug uptake (Mus musculus [17]): 0.342 %ID
Drug uptake (Kidney [18]): 6.576 %ID
Drug uptake (Mus musculus [19]): 0.038 %ID
Drug uptake (Kidney [20]): Active
Drug uptake (Liver [21]): 0.827 %ID
Drug uptake (Kidney [22]): 4.906 %ID
Drug uptake (Mus musculus [23]): 0.173 %ID
Drug uptake (Liver [24]): 2.319 %ID
Drug uptake (Mus musculus [25]): 3.165 %ID
Stability (Blood): Stable
Drug uptake (Mus musculus [26]): 0.102 %ID
Drug uptake (Kidney [27]): 0.236 %ID
Drug uptake (Mus musculus [28]): 2.06 %ID
Drug uptake (Lung [29]): 0.254 %ID
Drug uptake (Mus musculus [30]): 0.169 %ID
Drug uptake (Mus musculus [31]): 0.041 %ID
Drug uptake (Spleen [32]): 0.087 %ID
Drug uptake (Mus musculus [33]): 1.604 %ID
Drug uptake (Mus musculus [34]): 35.204 %ID
Drug uptake (Thyroid gland [35]): 0.008 %ID
